Results reported in ChEMBL document CHEMBL1201862, “PubChem BioAssay data set” (2004).
The source made the active and inactive calls.

How the values were obtained:
[1] = system: P388/ADR; assay: cells; assay type: functional; settings: Mus musculus
[2] = system: P388; assay: cells; assay type: functional; settings: Mus musculus
[3] = system: SN12K1; assay: cells; assay type: functional; settings: Homo sapiens
[4] = target: T1, Sentrin-specific protease 1 (Homo sapiens, UniProt Q9P0U3); assay: Dose response confirmation of small molecule inhibitors of the catalytic domain of the SUMO protease, SENP1 in a FRET assay.; assay type: functional; settings: read-out: IC50_Mean
T1 sequence (Q9P0U3 whole entry): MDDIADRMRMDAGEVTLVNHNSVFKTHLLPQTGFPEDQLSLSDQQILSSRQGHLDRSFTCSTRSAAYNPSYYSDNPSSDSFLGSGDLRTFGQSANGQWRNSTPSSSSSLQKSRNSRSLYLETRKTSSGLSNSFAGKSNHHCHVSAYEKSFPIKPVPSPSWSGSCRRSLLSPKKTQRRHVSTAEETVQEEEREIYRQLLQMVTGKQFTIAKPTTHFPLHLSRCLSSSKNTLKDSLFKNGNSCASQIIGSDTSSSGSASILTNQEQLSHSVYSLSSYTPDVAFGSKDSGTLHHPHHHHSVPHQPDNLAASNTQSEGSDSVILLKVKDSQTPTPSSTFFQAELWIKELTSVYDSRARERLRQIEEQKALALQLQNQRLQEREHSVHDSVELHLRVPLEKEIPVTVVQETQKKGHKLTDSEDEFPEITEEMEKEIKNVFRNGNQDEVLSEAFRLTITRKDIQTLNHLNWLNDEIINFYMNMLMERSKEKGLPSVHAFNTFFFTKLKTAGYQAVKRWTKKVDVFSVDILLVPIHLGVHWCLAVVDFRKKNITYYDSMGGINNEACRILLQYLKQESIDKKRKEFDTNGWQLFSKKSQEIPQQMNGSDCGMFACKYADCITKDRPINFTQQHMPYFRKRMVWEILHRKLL

[5] = target: T1, Sentrin-specific protease 1; assay: SENP1 catalytic domain blockers, concentration series – biochemical, kinetic FRET, dose response (AID 651697); assay type: functional; settings: read-out: IC50_Mean
[6] = target: Melanin-concentrating hormone receptor 1 (Homo sapiens, UniProt Q99705); assay: Late-stage fluorescence-based counterscreen for antagonists of the G-protein coupled receptor 7 (GPR7): cell-based dose response assay to identify antagonists of the melanin-concentrating hormone receptor 1 (MCHR1) Set 6.; assay type: functional
Chain of Melanin-concentrating hormone receptor 1 (Q99705 whole entry): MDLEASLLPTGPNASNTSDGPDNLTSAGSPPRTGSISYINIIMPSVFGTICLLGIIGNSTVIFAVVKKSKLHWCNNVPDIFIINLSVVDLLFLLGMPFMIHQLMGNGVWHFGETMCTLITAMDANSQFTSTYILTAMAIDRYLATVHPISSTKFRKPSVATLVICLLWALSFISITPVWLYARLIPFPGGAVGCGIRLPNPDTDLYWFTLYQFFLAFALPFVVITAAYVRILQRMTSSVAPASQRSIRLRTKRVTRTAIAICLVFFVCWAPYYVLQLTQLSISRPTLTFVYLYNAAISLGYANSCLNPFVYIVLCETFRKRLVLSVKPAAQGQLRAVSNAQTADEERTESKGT

[7] = target: T2, Neuropeptides B/W receptor type 1 (Homo sapiens, UniProt P48145); assay: human NPBW1 receptor blockade, IC50 – cell-based, fluorescence, dose response, set 6, late-stage follow-up (AID 588583); assay type: functional
T2 sequence (P48145 whole entry): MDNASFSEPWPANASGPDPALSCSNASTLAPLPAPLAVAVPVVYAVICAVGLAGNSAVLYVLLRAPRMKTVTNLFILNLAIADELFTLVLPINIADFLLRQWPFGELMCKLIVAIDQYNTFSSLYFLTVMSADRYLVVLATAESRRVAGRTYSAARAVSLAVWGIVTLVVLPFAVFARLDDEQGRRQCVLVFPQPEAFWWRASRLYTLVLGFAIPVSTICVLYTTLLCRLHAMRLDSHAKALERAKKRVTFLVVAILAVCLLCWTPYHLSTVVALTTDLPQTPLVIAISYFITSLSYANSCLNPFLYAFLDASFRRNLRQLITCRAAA

[8] = target: T3, Carboxy-terminal domain RNA polymerase II polypeptide A small phosphatase 1 (Homo sapiens, UniProt Q9GZU7); assay: CTDSP1 inhibitors, concentration-response, biochemical, absorbance readout, ultra-high-throughput screen actives (AID 540297); assay type: functional
T3 sequence (Q9GZU7 whole entry): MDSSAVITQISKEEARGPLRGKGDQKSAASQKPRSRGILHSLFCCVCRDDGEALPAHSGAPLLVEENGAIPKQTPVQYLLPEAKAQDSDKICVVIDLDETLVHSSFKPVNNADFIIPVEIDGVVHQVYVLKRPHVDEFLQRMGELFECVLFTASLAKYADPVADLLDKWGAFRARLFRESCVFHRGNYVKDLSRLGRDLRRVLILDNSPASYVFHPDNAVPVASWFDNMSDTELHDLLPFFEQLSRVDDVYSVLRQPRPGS

[9] = target: T4, Small ubiquitin-related modifier 1 (Homo sapiens, UniProt P63165); assay: SUMO1 protein interaction blockers, potency – biochemical, fluorescence polarization, uHTS hits, dose response (AID 624382); assay type: functional; settings: read-out: IC50_Mean
T4 sequence (P63165 whole entry): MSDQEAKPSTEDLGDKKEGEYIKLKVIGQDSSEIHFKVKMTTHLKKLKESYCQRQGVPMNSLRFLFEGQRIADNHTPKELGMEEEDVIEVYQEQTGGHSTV

[10] = target: T5, Caspase-6 (Homo sapiens, UniProt P55212); assay: inhibition of CASP6 peptide cleavage – biochemical, VEID-R110 fluorescence, cherry-pick, dose response (AID 720632)
T5 sequence (P55212 whole entry): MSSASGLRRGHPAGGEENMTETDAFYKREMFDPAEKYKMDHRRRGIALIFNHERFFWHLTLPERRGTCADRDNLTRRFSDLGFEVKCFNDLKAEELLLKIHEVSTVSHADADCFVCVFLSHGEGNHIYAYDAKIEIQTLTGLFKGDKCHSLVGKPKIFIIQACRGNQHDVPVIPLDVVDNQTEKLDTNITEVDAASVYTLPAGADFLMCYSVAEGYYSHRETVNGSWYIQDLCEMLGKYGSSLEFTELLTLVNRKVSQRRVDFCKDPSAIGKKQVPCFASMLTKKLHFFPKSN

[11] = target: T4, Small ubiquitin-related modifier 1; assay: SUMO1 protein-protein binding blockers, potency – biochemical, FRET, dose response (AID 624383); assay type: functional; settings: read-out: IC50_Mean
[12] = Luminescence Cell-Based Dose Confirmation HTS to Identify Inhibitors of Platelet Dense Granule Release. [Related pubchem assays: 1663 (Primary HTS), 1678 (Summary of Project)]; assay type: functional
[13] = system: HeLa; assay: ATP-based viability loss in HeLa cells – cell-based, CellTiter-Glo luminescence, cherry-pick samples, cytotoxicity control for MITF activator project, dose response (AID 540259); assay type: functional; settings: Homo sapiens
[14] = target: Luciferin 4-monooxygenase (Photinus pyralis, UniProt P08659); assay: inhibition of purified Photinus pyralis luciferase – biochemical, luminescence, dose response (AID 1891)
Chain of Luciferin 4-monooxygenase (P08659 whole entry): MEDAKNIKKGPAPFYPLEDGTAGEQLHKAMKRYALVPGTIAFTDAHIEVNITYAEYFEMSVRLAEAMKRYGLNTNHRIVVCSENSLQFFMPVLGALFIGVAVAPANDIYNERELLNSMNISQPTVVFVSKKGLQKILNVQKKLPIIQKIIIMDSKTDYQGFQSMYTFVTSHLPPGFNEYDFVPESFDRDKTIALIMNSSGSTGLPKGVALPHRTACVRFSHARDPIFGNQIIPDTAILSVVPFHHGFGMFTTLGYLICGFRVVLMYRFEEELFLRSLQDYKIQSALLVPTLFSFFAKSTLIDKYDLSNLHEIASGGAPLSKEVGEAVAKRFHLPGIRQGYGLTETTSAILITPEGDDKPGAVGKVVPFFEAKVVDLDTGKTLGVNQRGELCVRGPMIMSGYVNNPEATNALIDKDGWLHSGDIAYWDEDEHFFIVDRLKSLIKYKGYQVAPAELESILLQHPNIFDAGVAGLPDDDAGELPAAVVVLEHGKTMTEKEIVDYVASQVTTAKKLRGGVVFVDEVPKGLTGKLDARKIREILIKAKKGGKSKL

[15] = cAMP pathway inhibition in counterscreen cell line – TR-FRET cAMP detection, counter-screen for MC4R biased antagonist project, dose response (AID 602305); assay type: functional, cell-based;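 note: U2OS cells stimulated with forskolin near its EC80 as the cAMP inducer; potency is for inhibition of forskolin-stimulated cAMP signaling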
[16] = target: Melanocortin receptor 4 (Homo sapiens, UniProt P32245); assay: inhibitors of MC4R cAMP signaling – cell-based, TR-FRET, biased antagonists, dose response (AID 602298); assay type: functional;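 note: antagonist potency against agonist-stimulated cAMP production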
Chain of Melanocortin receptor 4 (P32245 whole entry): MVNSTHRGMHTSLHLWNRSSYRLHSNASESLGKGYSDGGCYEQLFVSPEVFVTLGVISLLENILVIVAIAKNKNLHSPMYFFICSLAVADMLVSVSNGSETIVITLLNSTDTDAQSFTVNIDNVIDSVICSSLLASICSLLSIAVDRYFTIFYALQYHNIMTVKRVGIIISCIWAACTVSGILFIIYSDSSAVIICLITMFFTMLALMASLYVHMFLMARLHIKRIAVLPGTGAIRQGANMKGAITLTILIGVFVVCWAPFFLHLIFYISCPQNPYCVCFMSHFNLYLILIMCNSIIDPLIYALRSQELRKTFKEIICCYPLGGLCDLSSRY

[17] = target: T6, Beta-lactamase (Pseudomonas aeruginosa, UniProt Q79MP6); assay: […] counterscreen for selective VIM-2 inhibitors: dose response biochemical high throughput screening assay to identify inhibitors of IMP-1 metallo-beta-lactamase.
T6 sequence (Q79MP6 whole entry): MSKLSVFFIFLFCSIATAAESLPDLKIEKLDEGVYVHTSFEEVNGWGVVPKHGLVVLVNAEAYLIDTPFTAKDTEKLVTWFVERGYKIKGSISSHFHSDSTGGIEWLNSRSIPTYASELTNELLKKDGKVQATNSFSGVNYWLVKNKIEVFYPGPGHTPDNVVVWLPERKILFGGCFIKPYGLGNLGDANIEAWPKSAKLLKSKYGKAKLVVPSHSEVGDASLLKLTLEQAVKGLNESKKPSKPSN

[18] = target: Beta-lactamase (Salmonella choleraesuis (strain SC-B67), UniProt Q5J463); assay: Epi-absorbance-based counterscreen for selective VIM-2 inhibitors: dose response biochemical high throughput screening assay to identify inhibitors of TEM-1 serine-beta-lactamase.
Chain of Beta-lactamase (Salmonella choleraesuis (strain SC-B67), UniProt Q5J463) (Q5J463 whole entry): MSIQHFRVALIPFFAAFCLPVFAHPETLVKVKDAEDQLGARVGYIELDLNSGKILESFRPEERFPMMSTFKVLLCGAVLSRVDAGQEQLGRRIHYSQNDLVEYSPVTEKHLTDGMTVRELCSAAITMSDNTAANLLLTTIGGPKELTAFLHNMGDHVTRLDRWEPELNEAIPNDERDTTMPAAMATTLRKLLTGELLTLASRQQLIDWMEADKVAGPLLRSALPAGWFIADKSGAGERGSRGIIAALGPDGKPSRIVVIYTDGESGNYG

[19] = target: T6, Beta-lactamase; assay: inhibition of IMP-1 beta-lactamase activity – biochemical, epi-absorbance, selectivity assay for VIM-2 inhibitor project, dose response (AID 1920)

In the case of `CSc1nc(NC2OCC(O)C(O)C2O)c(N)c(=O)n1C` (stereo not drawn), the GI50 [1] is reported as > 100 µM (inactive), the GI50 [2] is reported as > 100 µM (inactive) and the GI50 [3] is reported as > 100 µM (inactive).
In the case of `C=C1C(O)C2(O)OCC34C(CC5C(C)=CC(=O)C(O)C5(C)C23)OC(=O)C(OC(=O)C/C=C/CCCCCCCC)C14` (stereo not drawn), the GI50 [1] is reported as 0.0611 µM (active), the GI50 [2] is reported as 0.02 µM (active) and the GI50 [3] is reported as 0.02 µM (active).
With `Cc1c(C#N)c(O)nc(O)c1N=Nc1ccc(Br)cc1C(=O)O` the IC50 [4] was 10.6 µM (active) and the IC50 [5] was 18.1 µM (active).
With `O=c1c(-c2ccc(F)c(F)c2)c(Br)cnn1Cc1cccc2ccccc12` the IC50 [6] was 0.686 µM (active) and the IC50 [7] was 0.686 µM (active).
In the case of `CC1=CCC(C(=O)O)C(C(=O)NC2CCCCC2)C1` (stereo not drawn), the IC50 [8] is reported as 33.8 µM (active), the IC50 [9] is reported as > 66.6 µM (inactive) and the AC50 [10] is reported as 10.2 µM (active). For the same compound, the IC50 [11] was 20.4 µM (inactive).
For `COc1ccc(C(C#N)c2c(Cl)cnn(Cc3cccc4ccccc34)c2=O)c(F)c1` (stereo not drawn), the IC50 [6] was 0.198 µM (active) and the IC50 [7] was 0.198 µM (active).
With `CCCCCCC(=O)Nc1nc(C)c(-c2csc(Nc3cc(Cl)ccc3C)n2)s1` the IC50 [9] was > 66.6 µM (inactive) and the IC50 [11] was 10.1 µM (active).
In the case of `Cc1ccc(N(C)/N=C/c2ccc(Cl)cc2Cl)nn1`, the EC50 [12] is reported as > 112 µM (not active), the AC50 [13] is reported as 75.3 µM (active) and the EC50 [14] is reported as > 112 µM (not active).
In the case of `CC(C)(C#N)c1c(Cl)cnn(Cc2cccc3ccccc23)c1=O`, the IC50 [6] is reported as 2.5 µM (active) and the IC50 [7] is reported as 2.5 µM (active).
For `O=C(CNC(=O)c1ccc(Oc2ccccc2)cc1)OC1CCCCC1=O` (stereo not drawn), the IC50 [15] was > 64.6 µM (inactive) and the IC50 [16] was > 64.6 µM (inactive).
For `CCn1c(-c2nn(-c3ccccc3)ccc2=O)n[nH]c1=S`, the IC50 [17] was > 59.6 µM (inactive), the IC50 [18] was > 59.6 µM (inactive) and the IC50 [19] was > 59.6 µM (inactive).
